{"source": "patent EP0506565A1", "about": "“Use of 4,9,11-trienic steroids in compositions for turkeys” (ROUSSEL-UCLAF, priority 1991, dated 1992)", "key": {"[1]": {"assay": "Biological test: trenbolone acetate given orally in the feed, weight gain and feed conversion index", "format": "in vivo, dinde femelle", "parameters": "GPM = Gain de poids cumulé: unit not given here", "text": "L'essai a été effectué sur des dindes femelles âgées de 10 semaines.\nLes animaux sont répartis en 2 groupes : • un groupe témoin de 37 animaux, • un groupe de 37 animaux recevant de l'acétate de trenbolone dans leur nourriture.\nLes dindes reçoivent une quantité rationnée de nourriture renfermant l'acétate de trenbolone puis sont nourries ad libitum.\nOn calcule le poids moyen des dindes par pesée individuelle chaque semaine. On calcule le gain de poids moyen et l'indice de consommation c'est-à-dire (le poids total de nourriture que l'animal a reçu)/(gain de poids total) [formula]\nLes résultats sont résumés dans le tableau ci-dessus, ainsi que dans les courbes jointes en annexe. • Courbe 1 : évolution pondérale des dindes femelles de 9 à 19 semaines. • Courbe 2 : évolution de la différence entre les indices de consommation cumulés témoins-traités. • Courbe 3 : évolution de la différence entre les gains de poids moyens des animaux traités par rapport aux animaux témoins."}, "[2]": {"assay": "Plasma residues of TBA in orally treated turkeys", "format": "in vivo, dinde", "conditions": "à 10, 12, 14, 16 et 18 semaines; oral administration"}, "[3]": {"assay": "Course of plasma transaminase levels in orally treated turkeys", "format": "in vivo, dinde", "conditions": "oral administration, compared with controls"}, "[4]": {"assay": "Observation of locomotor behaviour of treated turkeys", "format": "in vivo, dinde", "conditions": "oral administration"}, "[5]": {"conditions": "administré par voie orale chez divers animaux notamment les bovins; cited from earlier work"}, "[6]": {"conditions": "11ème semaine, 0,7 mg/Jour/dinde per os"}, "[7]": {"conditions": "12ème semaine, 0,7 mg/Jour/dinde per os"}, "[8]": {"conditions": "13ème semaine, 0,7 mg/Jour/dinde per os"}, "[9]": {"conditions": "14ème semaine, 0,7 mg/Jour/dinde per os"}, "[10]": {"conditions": "15ème semaine, 0,7 mg/Jour/dinde per os"}, "[11]": {"conditions": "16ème semaine, 0,7 mg/Jour/dinde per os"}, "[12]": {"conditions": "17ème semaine, 1,4 mg /jour/dinde per os"}, "[13]": {"conditions": "18ème semaine, 1,4 mg /jour/dinde per os"}, "[14]": {"conditions": "19éme semaine, 1,4 mg /jour/dinde per os"}}}
{"smiles": "CC(=O)O[C@H]1CC[C@H]2[C@@H]3CCC4=CC(=O)CCC4=C3C=C[C@]12C", "note": "[acétate de trenbolone]", "values": [{"measurement": "% variation = % de l'augmentation de GPM des traités par rapport aux témoins", "setting": "[1]; [6]", "result": 12, "unit": "%"}, {"measurement": "GPM = Gain de poids cumulé", "setting": "[1]; [6]", "result": "1606,1"}, {"measurement": "I.C. = indice de consommation", "setting": "[1]; [6]", "result": "2,05"}, {"measurement": "PM = poids moyen", "setting": "[1]; [6]", "result": "4967,6 grammes"}, {"measurement": "% variation = % de l'augmentation de GPM des traités par rapport aux témoins", "setting": "[1]; [7]", "result": 18, "unit": "%"}, {"measurement": "GPM = Gain de poids cumulé", "setting": "[1]; [7]", "result": "2303,7"}, {"measurement": "I.C. = indice de consommation", "setting": "[1]; [7]", "result": "2,05"}, {"measurement": "PM = poids moyen", "setting": "[1]; [7]", "result": "5665,2 grammes"}, {"measurement": "% variation = % de l'augmentation de GPM des traités par rapport aux témoins", "setting": "[1]; [8]", "result": 12, "unit": "%"}, {"measurement": "GPM = Gain de poids cumulé", "setting": "[1]; [8]", "result": "2907,2"}, {"measurement": "I.C. = indice de consommation", "setting": "[1]; [8]", "result": "2,54"}, {"measurement": "PM = poids moyen", "setting": "[1]; [8]", "result": "6268,7 grammes"}, {"measurement": "% variation = % de l'augmentation de GPM des traités par rapport aux témoins", "setting": "[1]; [9]", "result": 10, "unit": "%"}, {"measurement": "GPM = Gain de poids cumulé", "setting": "[1]; [9]", "result": "3839,4"}, {"measurement": "I.C. = indice de consommation", "setting": "[1]; [9]", "result": "2,66"}, {"measurement": "PM = poids moyen", "setting": "[1]; [9]", "result": "7200,9 grammes"}, {"measurement": "% variation = % de l'augmentation de GPM des traités par rapport aux témoins", "setting": "[1]; [10]", "result": 7, "unit": "%"}, {"measurement": "GPM = Gain de poids cumulé", "setting": "[1]; [10]", "result": "4463,6"}, {"measurement": "I.C. = indice de consommation", "setting": "[1]; [10]", "result": "2,66"}, {"measurement": "PM = poids moyen", "setting": "[1]; [10]", "result": "7825,1 grammes"}, {"measurement": "% variation = % de l'augmentation de GPM des traités par rapport aux témoins", "setting": "[1]; [11]", "result": 8, "unit": "%"}, {"measurement": "GPM = Gain de poids cumulé", "setting": "[1]; [11]", "result": 5258}, {"measurement": "I.C. = indice de consommation", "setting": "[1]; [11]", "result": "3,1"}, {"measurement": "PM = poids moyen", "setting": "[1]; [11]", "result": "8619,6 grammes"}, {"measurement": "% variation = % de l'augmentation de GPM des traités par rapport aux témoins", "setting": "[1]; [12]", "result": 9, "unit": "%"}, {"measurement": "GPM = Gain de poids cumulé", "setting": "[1]; [12]", "result": "6008,1"}, {"measurement": "I.C. = indice de consommation", "setting": "[1]; [12]", "result": "3,33"}, {"measurement": "PM = poids moyen", "setting": "[1]; [12]", "result": "9369,7 grammes"}, {"measurement": "% variation = % de l'augmentation de GPM des traités par rapport aux témoins", "setting": "[1]; [13]", "result": 11, "unit": "%"}, {"measurement": "GPM = Gain de poids cumulé", "setting": "[1]; [13]", "result": "6651,2"}, {"measurement": "I.C. = indice de consommation", "setting": "[1]; [13]", "result": "3,45"}, {"measurement": "PM = poids moyen", "setting": "[1]; [13]", "result": "10012,8 grammes"}, {"measurement": "% variation = % de l'augmentation de GPM des traités par rapport aux témoins", "setting": "[1]; [14]", "result": 11, "unit": "%"}, {"measurement": "GPM = Gain de poids cumulé", "setting": "[1]; [14]", "result": "7197,8"}, {"measurement": "I.C. = indice de consommation", "setting": "[1]; [14]", "result": "3,59"}, {"measurement": "PM = poids moyen", "setting": "[1]; [14]", "result": "10559,4 grammes"}, {"measurement": "résidus plasmatiques de TBA", "setting": "[2]", "result": "inférieurs à la limite de dosage"}, {"measurement": "évolution du taux des transaminases plasmatiques (GOT et GPT)", "setting": "[3]", "result": "n'est pas modifiée par rapport aux témoins"}, {"measurement": "comportement locomoteur", "setting": "[4]", "result": "aucune anomalie"}, {"measurement": "activité", "setting": "[5]", "result": "relativement faible"}]}
